The values below come from patent US20080317857A1, “V-Atpase Inhibitors of Use in the Treatment of Septic Shock” (Brane Discovery S.r.l., priority 2005, published 2008).

In test [1] the test system is PMNs. The experiment in a line: Chemoattractant-induced rapid adhesion of PMNs to fibrinogen (CR3 ligand). Type of test: cell-based. The settings on record: Homo sapiens. The protocol: (§1) Adhesion was performed on purified integrin ligands and was evaluated as reported in Constantin G. et al., Immunity, 16, 759-769, 2000. Briefly, primary naïve lymphocytes, polymorphonuclear neutrophils (PMNs) or monocytes were isolated form healthy donors. In other experiments, murine autoreactive T cells were obtained from SJL mice immunized with PLP139-151 as described (Piccio L. et al., J. Immunol. 168, 1940-1949, 2002). Cells were resuspended at 4×10^6/ml in PBS, CaCl2, MgCl2 1 mM, 10% FCS, pH 7.2. Adhesion assays were performed on eighteen well glass slides coated overnight at 4° C. with ligands for CR3 (fibrinogen) or LFA-1 (ICAM-1). 20 μl of cell suspension were added to the wells and stimulated at 37° C. with 5 μl of agonists prior to washing, fixation and computer-assisted enumeration of bound cells.
(§2) Integrin activation was measured as induction of rapid adhesion triggered by the classical chemoattractant N-formyl-L-methionyl-L-leucyl-phenylalanine (fMLP) (100 nM) or by the CC chemokine MIP3β (CCL19, 1 μM). PMNs and monocytes were triggered to adhere to fibrinogen (CR3 ligand); naive human lymphocytes or murine encephalitogenic T cells were triggered to adhere to ICAM-1 (LFA-1 ligand). Triggered adhesion was evaluated after 2 min of stimulation under static conditions. The cells were pretreated at 37° C. for 30-60 min with the indicated concentrations of the test compound. Results are expressed as percentage of inhibition over control (=100%) and are the mean of three experiments in the case of human leukocytes. Results are expressed as mean counts and are the mean counts±S.D of three experiments and are the mean of three experiments in the case of murine encephalitogenic lymphocytes.
(§3) Integrin activation was measured as induction of rapid adhesion triggered by the “classical” chemoattractant fMLP (100 nM) or by the CC chemokine MIP3β(CCL19, 1 μM). PMNs were triggered to adhere to fibrinogen (CR3 ligand); lymphocytes were triggered to adhere to ICAM-1 (LFA-1 ligand).

The subject of a further test is Lymphocytes. Put plainly: Chemokine-induced rapid adhesion of lymphocytes to ICAM-1 (LFA-1 ligand). Type of test: cell-based. The settings on record: Homo sapiens, Lymphocyte. The procedure:
as §1, §2, §3

For test [2], the system named is PMNs. Put plainly: Chemotaxis assay, PMNs (transwell). Type of test: cell-based. To be noted: Homo sapiens. The protocol: PMNs and monocytes migration was assessed using 1 or 3-μm pore size transwells (Bio-Coat Becton-Dickinson), while lymphocytes by using 5-μm pore size transwells.
Cells were in RPMI1640, containing 10% heat-inactivated Fetal Calf Serum (FCS) and 20 mM HEPES, pH 7.3, at 2×10^6/ml. 100 μl of cell suspension were added to the top well, and 600 μl of medium, containing chemoaftractants and test compound, were added to the bottom well. Migration was evaluated after 2 h for PMNs and monocytes and after 4 h for lymphocytes. fMLP 10 nM (PMNs and monocytes) and MIP-3β 100 nM (lymphocytes) were utilized as chemoattractants. After fixation with 1.5% glutaraldehyde, migrated cells were counted by fluorescence-activated cell sorting using polystyrene beads (Polyscience) as an internal standard (Campbell J. J. et al. J. Cell. Biol. 134, 255-266, 1996; Laudanna C. et al. J. Biol. Chem. 273, 46, 30306-30315, 1998).
Results are expressed as percentage of inhibition over control (=100%), and are the mean of three experiments.

Test [3] relates to endotoxic shock induced by LPS in C57BI/6 male mice. The experiment in a line: Septic shock animal model (LPS-induced endotoxic shock), survival. The class given is in vivo. From the text: The model is represented by endotoxic shock, the most common type of septic shock in humans.
The septic shock has been induced in 8-10 week-old C57BI/6 male mice (Harlan-Nossan laboratories) by high concentrations of LPS (lipopolysaccharide), that is considered a reliable experimental model for human endotoxic shock (Garrido et al., Acta Chir. Bras., 19, 2004).
LPS from Escherichia coli 0127:B7 (Sigma) was solubilized in PBS containing 2% fetal calf serum (FCS) as a source of “LPS binding protein”, a molecule that increases the endotoxin action. Mice received 37.5 mg/kg LPS/endotoxin intraperitoneally (i.p.). Animals (ten/group) were monitored at least four times daily and survival of animals was determined in control and treated mice (Lowell C. A. et al., PNAS 95, 7580, 1998).
In the preventive study (FIG. 3), control mice received only vehicle, while treated mice received 70 mg/kg i.p. of Compound of Example 1 two hours before the administration of LPS.
In the therapeutic study (FIG. 4), control mice received only vehicle, while treated mice received both 70 mg/kg i.p. of Compound of Example 1 (3 hours after LPS administration) and 10 mg/kg i.v. (intravenously) (12 hours after LPS administration).

Molecules are shown by their SMILES.

Turning to `COC(=O)c1[nH]c2cc(OC)c(OC)cc2c1-c1ccc(OC)cc1` [Example 1], the inhibition at 2.5 µM was found to be 9.4% in the test on PMNs [1] ([cpd] 2.5 μM, read-out: Inhibition of Adhesion (%) PMNs (fMLP)); 32.4% in the test with Lymphocytes ([cpd] 2.5 μM, read-out: Inhibition of Adhesion (%) Lymphocytes (MIP3-β)); 14.6% with PMNs [2] ([cpd] 2.5 μM, read-out: Inhibition of Chemotaxis (%) PMNs (fMLP)). The inhibition at 5 µM in the test with PMNs [1] ([cpd] 5 μM, read-out: Inhibition of Adhesion (%) PMNs (fMLP) (converted)) is 56.1%; in the test on Lymphocytes ([cpd] 5 μM, read-out: Inhibition of Adhesion (%) Lymphocytes (MIP3-β) (converted)), 41.2%; with PMNs [2] ([cpd] 5 μM, read-out: Inhibition of Chemotaxis (%) PMNs (fMLP) (converted)), 28.2%. Also, the inhibition at 10 µM in the test on PMNs [1] ([cpd] 10 μM, read-out: Inhibition of Adhesion (%) PMNs (fMLP) (converted)) was 66.7%; in the test on Lymphocytes ([cpd] 10 μM, read-out: Inhibition of Adhesion (%) Lymphocytes (MIP3-β) (converted)), 42.6%; in the test with PMNs [2] ([cpd] 10 μM, read-out: Inhibition of Chemotaxis (%) PMNs (fMLP) (converted)), 34%. Besides, the inhibition at 25 µM with PMNs [1] ([cpd] 25 μM, read-out: Inhibition of Adhesion (%) PMNs (fMLP) (converted)) was 72.9%; in the test on Lymphocytes ([cpd] 25 μM, read-out: Inhibition of Adhesion (%) Lymphocytes (MIP3-β) (converted)), 60.8%; with PMNs [2] ([cpd] 25 μM, read-out: Inhibition of Chemotaxis (%) PMNs (fMLP) (converted)), 40.6%. The inhibition at 50 µM in the test with PMNs [1] ([cpd] 50 μM, read-out: Inhibition of Adhesion (%) PMNs (fMLP) (converted)) is 79%; in the test on Lymphocytes ([cpd] 50 μM, read-out: Inhibition of Adhesion (%) Lymphocytes (MIP3-β) (converted)) it was 61.8%; in the test with PMNs [2] ([cpd] 50 μM, read-out: Inhibition of Chemotaxis (%) PMNs (fMLP)) it was 46.4%. Further, the inhibition at 100 µM was 94.2% in the test on PMNs [1] ([cpd] 100 μM, read-out: Inhibition of Adhesion (%) PMNs (fMLP) (converted)); 98.6% with Lymphocytes ([cpd] 100 μM, read-out: Inhibition of Adhesion (%) Lymphocytes (MIP3-β) (converted)); 62.6% in the test on PMNs [2] ([cpd] 100 μM, read-out: Inhibition of Chemotaxis (%) PMNs (fMLP) (converted)). Besides, in test [3] (70 mg/kg i.p. 3 hours and 10 mg/kg i.v. 12 hours after LPS, at 52 hours, control survival 0%), the “survival, therapeutic study” value was determined as 40%. For the same compound, the “mortality, preventive study” value in test [3] (70 mg/kg i.p. two hours before LPS, at 90 hours, control mortality 100%) is listed as 20%. Moreover, in test [3] (70 mg/kg i.p. two hours before LPS, at 90 hours, control survival 0%), the “survival, preventive study” value was found to be 80%.

Broadly, the inhibition is the relative decrease from the control value, in per cent.
